{"source": "patent US20120244568A1", "about": "“LABEL-FREE RIGID CELL ASSAY METHOD” (priority 2011, published 2012)", "format_in_all_cases": "cell-based", "key": {"[1]": {"tested_on": "Saccharomyces cerevisiae S288C yeast cells", "experiment": "label-free DRCA multi-wavelength SPR yeast cell assay (response to a substance)", "details": "10 micromolar; for effect on yeast cell growth measured at short penetration depth: 660 nm laser source; for effect on yeast cell growth measured at short penetration depth / effect on yeast cell growth: FIG. 4; for effect on yeast cell growth: 4,000 cells per well, pre-incubated 60 minutes; for effect on yeast cell growth compared with the other modulators: consistent at three different penetration depths, versus fluconazole and ketaconazole", "procedure": "Yeast cells were cultured on an YPD agar plate at 28° C. for 16 hours and kept at 4° C. until just prior to use. From the agar plate, yeast cells were collected and seeded into YPD liquid medium and cultured at 28° C. for 8 hours. The cells were then diluted with its liquid medium to obtain a cell density of about 4,000 cells/mL as a starting point for cell inhibition studies. For the detection of yeast cells, the cells were collected at the late logarithm phase and collected by centrifugation at 10,000 g for 10 minutes. Cells were further washed to remove debris and/or high index material such as glucose.\nA DRCA™ system equipped with three lasers having wavelengths of, for example, 660 nm, 980 nm, and 1480 nm, was selected for the study. The system allows for simultaneously measuring a cell at three different wavelengths. The output measures the angular change of the surface plasmon resonance (SPR). The angular change indicates a mass change within the defined sensing region. The depth of the sensing region depends on the wavelength of the selected illuminating laser as listed, for example, in Table 1.\nA user-assembled assay plate was first assembled with a gold coated glass slide and an 80-well holey plate (cut from a 384-well holey plate). Yeast cells were seeded into the wells with or without a compound and incubated in the instrument for approximately 60 minutes at 22° C. The cell responses were then measured and data were collected according to the description in the aforementioned U.S. Ser. No. 12/956,464.\nA procedure for accomplishing a label-free rigid cell assay response to a substance in accord with the present disclosure can include, for example: • 1. clean and assemble an 80-well holey plate on top of a gold chip; • 2. sterile the assembled chip by exposure to high intensity UV light for around 5 minutes; • 3. grow yeast cells until the middle or late logarithm stage, preferably the former for an active inoculum; • 4. turn on the DRCA optical system to warm-up the lasers for, e.g., 1 hour; • 5. collect yeast cell by centrifugation at, e.g., 10,000 g for 10 minutes; • 6. wash the cells with at least 5× fold volume of the pellet using a saline buffer, such as phosphate saline buffer; • 7. vortex the cell solution using, for example, a bench top vortex mixer; • 8. collect yeast cells by centrifugation at e.g. 10,000 g for 10 minutes; • 9. repeat steps 6 to 8 for approximately three (3) times to remove high refractive index materials, such as, sugar residues, cell debris, or like materials, and mixtures thereof; • 10. count yeast cell number using, e.g., a hemocytometer • 11. prepare assay buffer with or without a substance (compound/bio-molecule); • 12. load assay buffer with or without a substance (compound/bio-molecule) to each well of the cell chamber and let it equilibrate for, e.g., 60 minutes; • 13. record the baselines for, e.g., 15 minutes; • 14. add a small amount of yeast cells, such as 4000 cells/mL to each well; • 15. monitor the yeast cell response, for example, to an added substance, with a plurality of wavelengths and depths; • 16. record the data; and • 17. analyze the data by calculating the difference between the end points and baselines.\nFour modulator compounds were used to study of their effect on yeast cells. A user assembled (i.e., a virtual) assay plate was seeded with 4,000 cells per well. A modulator was added to a test well at 10 micromolar and then pre-incubated for 60 minutes. Each modulator was tested in three replicates. The well without a modulator was a positive control. […] However, the difference between the modulators and controls was more substantial when measured at the longest penetration depth using the 1480 nm laser source. […] Accordingly, the disclosed method can be useful for drug screening, drug development, and like applications.\nTime course of a modulator effect. The effect of an amphotericin compound on yeast cells was monitored in real time under ambient condition. […]"}, "[2]": {"tested_on": "Saccharomyces cerevisiae S288C yeast cells", "experiment": "turbidometric determination with a visible light spectrophotometer (absorbance OD580) of DRCA assay samples", "details": "10 micromolar, FIG. 7", "from_the_text": "FIG. 7 charts absorbance readings of a conventional turbidometric determination using a visible light spectrophotometer, for cultured yeast cells without amphotericin (left; amphotericin at 0 micromolar) and contacted with amphotericin (right; amphotericin at 10 micromolar). Turbidity can be used as an indirect measure of cell growth. Using a standard curve generated with serial dilutions of known number cells, one can estimate cell density in a turbid cell culture.\n(§1) The samples from the aforementioned DRCA assay were further analyzed with a spectrophotometer (Agilent Technologies, Wilmington, Del.) and hemocytometer (Thermo Fisher Scientific, Hudson, N.H.). […] With amphotericin treatment, the cell number was about zero, compared to about 12,000,000 cells in the untreated sample, see FIG. 8 (yeast cell count by hemocytometer) for amphotericin (80) and no amphotericin (82) at each of three wavelengths."}, "[3]": {"tested_on": "Saccharomyces cerevisiae S288C yeast cells", "experiment": "yeast cell count by hemocytometer of DRCA assay samples", "details": "with amphotericin treatment; FIG. 8; untreated sample about 12,000,000 cells", "from_the_text": "as §1"}, "[4]": {"tested_on": "Saccharomyces cerevisiae S288C yeast cells", "experiment": "label-free DRCA multi-wavelength SPR yeast cell assay (response to a substance)"}}, "note": "Read-outs that look alike come from different tables or passages of the source.", "data": [{"smiles": "OC(Cn1cncn1)(Cn1cncn1)c1ccc(F)cc1F", "note": "[fluconazole]", "values": [{"measurement": "effect on yeast cell growth measured at short penetration depth", "setting": "[1]", "value": "not detectable"}, {"measurement": "effect on yeast cell growth", "setting": "[1]", "value": "had an effect on yeast cell growth"}]}, {"smiles": "Clc1ccccc1C(c1ccccc1)(c1ccccc1)n1ccnc1", "note": "[clotrimazole]", "values": [{"measurement": "effect on yeast cell growth", "setting": "[1]", "value": "had an effect on yeast cell growth"}, {"measurement": "effect on yeast cell growth compared with the other modulators", "setting": "[1]", "value": "more noticeable effect"}]}, {"smiles": "CC(=O)N1CCN(c2ccc(OCC3COC(Cn4ccnc4)(c4ccc(Cl)cc4Cl)O3)cc2)CC1", "note": "(stereo not drawn) [ketaconazole]", "values": [{"measurement": "effect on yeast cell growth measured at short penetration depth", "setting": "[1]", "value": "not detectable"}, {"measurement": "effect on yeast cell growth", "setting": "[1]", "value": "had an effect on yeast cell growth"}]}, {"smiles": "C[C@@H]1[C@H](O)[C@@H](C)/C=C/C=C/C=C/C=C/C=C/C=C/C=C/[C@H](O[C@@H]2O[C@H](C)[C@@H](O)[C@H](N)[C@@H]2O)C[C@@H]2O[C@](O)(C[C@@H](O)C[C@@H](O)[C@H](O)CC[C@@H](O)C[C@@H](O)CC(=O)O[C@H]1C)C[C@H](O)[C@H]2C(=O)O", "note": "[amphotericin, Amphotericin]", "values": [{"measurement": "effect on yeast cell growth", "setting": "[1]", "value": "had an effect on yeast cell growth"}, {"measurement": "change in response over time (time course)", "setting": "[1]; about 16 hours, any given penetration depth (660, 980, 1480 nm), FIG. 5", "value": "almost no change in response"}, {"measurement": "effect on yeast cell growth compared with the other modulators", "setting": "[1]", "value": "more noticeable effect"}, {"measurement": "cell growth by turbidity", "setting": "[2]", "value": "cell growth was inhibited"}, {"measurement": "OD580 absorbance reading", "setting": "[2]; untreated sample about 12", "value": "about zero"}, {"measurement": "cell number", "setting": "[3]", "value": "about zero"}, {"measurement": "IC50", "setting": "[4]; read-out: IC50 (inhibition curve, yeast cells), 660 nm wavelength, about 4000 cells/well, 3,000 nM serially diluted at 3 fold, R^2=0.9072", "value": 374, "unit": "nM"}, {"measurement": "IC50", "setting": "[4]; read-out: IC50 (inhibition curve, yeast cells), 980 nm wavelength, about 4000 cells/well, 3,000 nM serially diluted at 3 fold, R^2=0.9486", "value": 271, "unit": "nM"}, {"measurement": "IC50", "setting": "[4]; read-out: IC50 (inhibition curve, yeast cells), 1480 nm wavelength, about 4000 cells/well, 3,000 nM serially diluted at 3 fold, R^2=0.9817", "value": 158, "unit": "nM"}]}]}
